In patent US9856511B2, “Protease deubiquitinating inhibitor screening” (priority 2011, dated 2018):

Legend:
[1] = target: T1, UCHL5 (Homo sapiens, UniProt Q9Y5K5); assay: HA-UbVS competitive active-site labelling of 19S RP or 26S proteasomes; format: binding; details: 19S RP or 26S proteasomes incubated with b-AP15
T1 construct: purchased Boston Biochem E-366 (19S), E-365 (26S)
From the text: (§1) The deubiquitinating activity of the proteasome is attributed to the action of three DUBs, UCHL5, USP14 and POH1, all localized within the 19S RP 26-28. Both UCHL5 and USP14 are sensitive to N-ethylmaleimide (NEM), a general inhibitor of cysteine proteases, whereas POH1 is insensitive to inhibition by NEM but sensitive to metal chelators such as N,N,N,N-tetrakis-(2-pyridylmethyl)ethylenediamine (TPEN) (29). […] To identify specifically which DUBs were inhibited by b-AP15 treatment, competitive labelling experiments were performed using hemagglutinin tagged ubiquitin vinylsulphonone (HA-UbVS), an active site directed probe that irreversibly reacts with DUBs of the cysteine class (26).
(§2) For labelling of DUBs in cell lysates sub confluent cells were harvested by trypsinization, washed three times with PBS, and centrifuged at 1500 RPM for 5 min. Cell pellets were lysed with buffer (50 mM HEPES pH 7.4, 250 mM sucrose, 10 mM MgCl2, 2 mM ATP, 1 mM DTT) on ice for 15 min. Debris was removed by centrifugation and 25 μg of protein was labelled with 1 μM HA-UbVS for 30 min at 37° C. Samples were resolved by SDS-PAGE and analyzed by immunoblotting with indicated antibodies.
(§3) 19S RP were pre-treated with DMSO, NEM (10 mM) b-AP15 (50 μM) (FIG. 3a) or TPEN (250 μM) (FIG. 3b) followed by addition of Ub-GFP and immunoblotting with anti-GFP antibodies. […]

[2] = target: T2, USP14 (Homo sapiens, UniProt P54578); assay: as above; format: binding; details: 19S RP or 26S proteasomes incubated with b-AP15
T2 construct: purchased Boston Biochem E-366 (19S), E-365 (26S)
From the text: as §1, §2, §3

[3] = system: HCT-116 cells; assay: Cell-cycle analysis, propidium iodide staining and flow cytometry; format: cell-based
Procedure: The turnover of many cell cycle regulatory proteins is controlled by the UPS including inhibitors of the cyclin-dependent kinases p21 Cip1, p27 Kip1 and the tumor suppressor p53 (4). Treatment with b-AP15 increased their levels in a dose dependent manner.
For determination of cell cycle HCT-116 cells were treated with b-AP15 or DMSO Cells were harvested by trypsinisation, washed and fixed in 70% ice cold EtOH for 12 h. Cells were re-suspended in staining solution containing propidium iodide (50 μg/ml) and RNAse A (0.5 μg/ml) in PBS. Samples were run on BD FACScalibur. The percentage of cells in each phase of the cell cycle was determined using ModFit software.
b-AP15 inhibits degradation of ubiquitin-tagged YFP in a proteasome reporter cell line (FIG. 1a). Levels of ^UbG76V-YFP accumulation were determined by flow cytometry and immunoblotting; immunoblot of ubiquitin conjugation in HCT-116 cells treated with b-AP15 (1 μM) or bortezomib (100 nM) (FIG. 1b). Immunoblot of ubiquitin conjugates, caspase 3 activation PARP cleavage, p53. P21^Cip1 and p^Kip1 in HCT-116 cells following 24 h treatment with the indicated concentrations of b-AP15 (FIG. 1c). […]

C=CC(=O)N1C/C(=C\c2ccc([N+](=O)[O-])cc2)C(=O)/C(=C/c2ccc([N+](=O)[O-])cc2)C1 [b-AP15]
Ub-VS labelling of UCHL5 [1]: abolished Ub-VS labelling
Ub-VS labelling of USP14 [2]: abolished Ub-VS labelling
cell cycle effect [3]: cell cycle arrest in the G2/M phase boundary
